pIC50: −log10 of the molar value.
Test system: human LINE-1
Experiment: Human LINE-1 retrotransposition assay (HeLa cell-based dual-luciferase reporter)
Settings: Homo sapiens, HeLa, 72 h, Human LINE-1 activity inhibition; HeLa cells, reporter plasmid pYX017, Firefly/Renilla, 72 h incubation
Experimental: Representative Compounds of the Disclosure were tested for inhibition of retrotransposition activity of human LINE-1 in HeLa cells according to the following procedure.
HeLa cervical cancer cells were cultivated at 37° C. in a humidified 5% CO2 incubator in Dulbecco's Modified Eagle's Medium (DMEM)—high glucose, with 4500 mg/L glucose, L-glutamine, sodium pyruvate and sodium bicarbonate (Sigma), supplemented with 10% of heat inactivated fetal bovine serum (Thermo Fisher).
Assays were performed using reporter plasmid pYX017 as described (Xie, et al., 2011) with several modifications. The reporter assay was performed in 96-well white optical bottom plates. HeLa cells were seeded in wells 24 h prior to transfection and compound treatment so that cells were approximately 30% confluent on the day of transfection. Different cell plating densities were tested and a density of 2×10^3 cells was determined to be optimal.
Compounds were resuspended in DMSO. Serial dilutions (1:3) were prepared in DMSO. Medium containing different concentrations of the compounds were prepared by adding 2 μl of the compound dilution to 1 ml of the culture medium. The final concentration of DMSO in the medium was 0.2%.
FuGENE® HD transfection reagent (Promega, E2311, Lot 382574 and Lot 397842) was used to transfect the plasmids into the cells. The transfection reagent: DNA mixture was prepared in OpiMEM (Thermo Fisher) according to manufacturer's instructions. Different ratios of transfection reagent to DNA were tested and a ratio of 3:1 was determined to be optimal. Culture medium was removed from the cells and discarded. The transfection reagent: DNA mixture (5 μl) was mixed with the compound containing medium (100 μl/well) and this was added onto the cells of each well. Cells were incubated at 37° C./5% CO2 for different incubation time. A 72 h incubation time was determined to be optimal.
Luciferase reporter activity was quantified with the Dual-Luciferase® Reporter Assay System (Promega) according to manufacturer's instructions for multiwell plates except that cells were lysed directly on the multiwell plate with 30 μl of the passive lysis buffer (PLB) for 20 min at room temperature, with gentle shaking to ensure complete cell lysis.
Firefly and Renilla luciferase signals were measured using a SpectraMax i3× Multi-Mode Microplate Reader. Integration times of 100 ms and 10 ms were used to measure the Firefly and Renilla signals respectively. Relative L1 activity is calculated as Firefly/Renilla*1000 or Firefly/Renilla*10,000. Dose response inhibition data were fit to a four parameter logistic equation using non-linear regression (using Graphpad Prism 8), to determine IC50 values for each inhibitor.

`CC[C@]1(CO)O[C@@H](n2cc(OC)c(=O)[nH]c2=O)C[C@@H]1O` [Cpd. No. 103, 1-((2R,4S,5R)-5-ethyl-4-hydroxy-5-(hydroxymethyl)tetrahydrofuran-2-yl)-5-methoxypyrimidine-2,4(1H,3H)-dione] and `Cc1cn([C@H]2C[C@@H](O)[C@@](C)(CO)O2)c(=O)[nH]c1=O` [compound 23, 1-((2R,4R,5R)-4-hydroxy-5-(hydroxymethyl)-5-methyltetrahydrofuran-2-yl)-5-methylpyrimidine-2,4(1H,3H)-dione] cannot be ordered by pIC50: under 4.90 for the first, under 4.30 for the second.

Going from `CC[C@]1(CO)O[C@@H](n2cnc3c(OC)nc(N)nc32)C[C@@H]1O` [Cpd. No. 125, (2R,3S,5R)-5-(2-amino-6-methoxy-9H-purin-9-yl)-2-ethyl-2-(hydroxymethyl)tetrahydrofuran-3-ol] to `C#C[C@@]1(CO)C=C[C@H](n2cnc3c(OC)nc(Cl)nc32)O1` [compound 41, ((2R,5R)-5-(2-chloro-6-methoxy-9H-purin-9-yl)-2-ethynyl-2,5-dihydrofuran-2-yl)methanol], the pIC50 falls from 6.96 to under 4.30. The first is the more potent here.

Going from `C=C[C@]1(CO)O[C@H](n2cc(C#N)c(=O)[nH]c2=O)C[C@@H]1O` [compound 7, 1-((2S,4S,5R)-4-hydroxy-5-(hydroxymethyl)-5-vinyltetrahydrofuran-2-yl)-2,4-dioxo-1,2,3,4-tetrahydropyrimidine-5-carbonitrile] to `C=C[C@]1(CO)O[C@@H](n2cc(C)c(=O)[nH]c2=O)C[C@H]1O` [compound 25, 1-((2R,4R,5R)-4-hydroxy-5-(hydroxymethyl)-5-vinyltetrahydrofuran-2-yl)-5-methylpyrimidine-2,4(1H,3H)-dione], the pIC50 falls from 6.05 to under 4.30. The first is the more potent here.

First: C#C[C@]1(CO)O[C@@H](n2cnc3c(N)nc(F)nc32)[C@H](F)[C@@H]1O [compound 13, (2R,3R,4R,5R)-5-(6-amino-2-fluoro-9H-purin-9-yl)-2-ethynyl-4-fluoro-2-(hydroxymethyl)tetrahydrofuran-3-ol]
Second: C#C[C@@]1(CO)C=C[C@H](n2cnc3c(N)ncnc32)O1 [compound 14, ((2R,5R)-5-(6-amino-9H-purin-9-yl)-2-ethynyl-2,5-dihydrofuran-2-yl)methanol]
The pIC50 of the first is 0.87 log units lower: 3.43 for the first, 4.30 for the second.

First: Cc1cn([C@H]2C=C[C@@](C)(CO)O2)c(=O)[nH]c1=O [compound 21, 1-((2R,5S)-5-(hydroxymethyl)-5-methyl-2,5-dihydrofuran-2-yl)-5-methylpyrimidine-2,4(1H,3H)-dione]
Second: [2H]C([2H])([2H])c1cn([C@H]2C=C[C@@](C#C)(CO)O2)c(=O)[nH]c1=O [compound 37, 1-((2R,5R)-5-ethynyl-5-(hydroxymethyl)-2,5-dihydrofuran-2-yl)-5-(methyl-d3)pyrimidine-2,4(1H,3H)-dione]
The pIC50 of the first is lower: under 4.30 for the first, 7.17 for the second. The second is the more potent here.

`CC#C[C@@]1(CO)O[C@@H](n2cc(C)c(=O)[nH]c2=O)C[C@H]1O` [compound 24, 1-((2R,4R,5S)-4-hydroxy-5-(hydroxymethyl)-5-(prop-1-yn-1-yl)tetrahydrofuran-2-yl)-5-methylpyrimidine-2,4(1H,3H)-dione] and `C#C[C@]1(CO)O[C@@H](n2cc(C)c(=O)[nH]c2=O)C[C@H]1O` [compound 29, 1-((2R,4R,5R)-5-ethynyl-4-hydroxy-5-(hydroxymethyl)tetrahydrofuran-2-yl)-5-methylpyrimidine-2,4(1H,3H)-dione] cannot be ordered by pIC50: under 4.30 for the first, under 4.30 for the second.

`C#C[C@@]1(CO)C[C@@H](Sc2ccc(C)cc2)[C@H](n2cc(C)c(=O)[nH]c2=O)O1` [compound 26, 1-((2R,3R,5R)-5-ethynyl-5-(hydroxymethyl)-3-(p-tolylthio)tetrahydrofuran-2-yl)-5-methylpyrimidine-2,4(1H,3H)-dione] and `C#C[C@@]1(CO)C[C@@H](Sc2ccc(C)cc2)[C@H](n2ccc(=O)[nH]c2=O)O1` [compound 31, 1-((2R,3R,5R)-5-ethynyl-5-(hydroxymethyl)-3-(p-tolylthio)tetrahydrofuran-2-yl)pyrimidine-2,4(1H,3H)-dione] cannot be ordered by pIC50: under 4.30 for the first, under 4.30 for the second.

`C#C[C@@]1(CO)C=C[C@H](n2cc(C3CC3)c(=O)[nH]c2=O)O1` [compound 27, 5-cyclopropyl-1-((2R,5R)-5-ethynyl-5-(hydroxymethyl)-2,5-dihydrofuran-2-yl)pyrimidine-2,4(1H,3H)-dione] and `C#C[C@@]1(CO)C=C[C@H](n2cc(C#N)c(=O)[nH]c2=O)O1` [compound 33, 1-((2R,5R)-5-ethynyl-5-(hydroxymethyl)-2,5-dihydrofuran-2-yl)-2,4-dioxo-1,2,3,4-tetrahydropyrimidine-5-carbonitrile] cannot be ordered by pIC50: under 4.30 for the first, under 4.90 for the second.

`C#C[C@@]1(CO)C=C[C@H](n2cc(C(F)(F)F)c(=O)[nH]c2=O)O1` [compound 28, 1-((2R,5R)-5-ethynyl-5-(hydroxymethyl)-2,5-dihydrofuran-2-yl)-5-(trifluoromethyl)pyrimidine-2,4(1H,3H)-dione] and `C#C[C@@]1(CO)C=C[C@H](n2cc(CC)c(=O)[nH]c2=O)O1` [compound 35, 5-ethyl-1-((2R,5R)-5-ethynyl-5-(hydroxymethyl)-2,5-dihydrofuran-2-yl)pyrimidine-2,4(1H,3H)-dione] cannot be ordered by pIC50: under 4.90 for the first, under 4.30 for the second.

`C#C[C@@]1(CO)C=C[C@H](n2ccc(=O)[nH]c2=O)O1` [compound 30, 1-((2R,5R)-5-ethynyl-5-(hydroxymethyl)-2,5-dihydrofuran-2-yl)pyrimidine-2,4(1H,3H)-dione] and `C#C[C@@]1(CO)C=C[C@H](n2cc(OC)c(=O)[nH]c2=O)O1` [compound 36, 1-((2R,5R)-5-ethynyl-5-(hydroxymethyl)-2,5-dihydrofuran-2-yl)-5-methoxypyrimidine-2,4(1H,3H)-dione] cannot be ordered by pIC50: 4.80 for the first, under 4.90 for the second.

First: C#C[C@]1(CO)O[C@H](n2ccc(N)nc2=O)C[C@@H]1O [compound 32, 4-amino-1-((2S,4S,5R)-5-ethynyl-4-hydroxy-5-(hydroxymethyl)tetrahydrofuran-2-yl)pyrimidin-2(1H)-one]
Second: C#C[C@]1(CO)OC(n2cc(C)c(N)nc2=O)C[C@@H]1O (stereo partly drawn) [compound 46, 4-amino-1-((4S,5R)-5-ethynyl-4-hydroxy-5-(hydroxymethyl)tetrahydrofuran-2-yl)-5-methylpyrimidin-2(1H)-one]
The pIC50 of the first is higher: 6.08 for the first, under 4.30 for the second. The first is the more potent here.

`C#C[C@@]1(CO)C=C[C@H](n2ccc3c(=O)[nH]cnc32)O1` [compound 34, 7-((2R,5R)-5-ethynyl-5-(hydroxymethyl)-2,5-dihydrofuran-2-yl)-3,7-dihydro-4H-pyrrolo[2,3-d]pyrimidin-4-one] and `C#C[C@@]1(CO)C=C[C@H](n2cc(F)c(N)nc2=O)O1` [compound 40, 4-amino-1-((2R,5R)-5-ethynyl-5-(hydroxymethyl)-2,5-dihydrofuran-2-yl)-5-fluoropyrimidin-2(1H)-one] cannot be ordered by pIC50: under 4.30 for the first, under 4.30 for the second.

`C#C[C@@]1(CO)C=C[C@H](n2cnc3cncnc32)O1` [compound 38, ((2R,5R)-2-ethynyl-5-(9H-purin-9-yl)-2,5-dihydrofuran-2-yl)methanol] and `C#C[C@@]1(CO)C=C[C@H](n2cnc3c(Cl)ncnc32)O1` [compound 39, ((2R,5R)-5-(6-chloro-9H-purin-9-yl)-2-ethynyl-2,5-dihydrofuran-2-yl)methanol] cannot be ordered by pIC50: under 4.30 for the first, under 4.30 for the second.

First: C#C[C@@]1(CO)C=C[C@H](n2cc(C)c(N)nc2=O)O1 [compound 42, 4-amino-1-((2R,5R)-5-ethynyl-5-(hydroxymethyl)-2,5-dihydrofuran-2-yl)-5-methylpyrimidin-2(1H)-one]
Second: C#C[C@]1(CO)OC(n2cc(C)c(=O)[nH]c2=O)C[C@@H]1O (stereo partly drawn) [compound 43, 1-((4S,5R)-5-ethynyl-4-hydroxy-5-(hydroxymethyl)tetrahydrofuran-2-yl)-5-methylpyrimidine-2,4(1H,3H)-dione]
The pIC50 of the first is lower: under 4.30 for the first, 6.06 for the second. The second is the more potent here.

First: C#C[C@]1(CO)OC(n2cc(Br)c(=O)[nH]c2=O)C[C@@H]1O (stereo partly drawn) [compound 44, 5-bromo-1-((4S,5R)-5-ethynyl-4-hydroxy-5-(hydroxymethyl)tetrahydrofuran-2-yl)pyrimidine-2,4(1H,3H)-dione]
Second: C#C[C@]1(CO)OC(n2cc(F)c(=O)[nH]c2=O)C[C@@H]1O (stereo partly drawn) [compound 45, 1-((4S,5R)-5-ethynyl-4-hydroxy-5-(hydroxymethyl)tetrahydrofuran-2-yl)-5-fluoropyrimidine-2,4(1H,3H)-dione]
The pIC50 of the first is 0.24 log units higher: 5.66 for the first, 5.42 for the second. The first is the more potent here.

Same assay, conditions: Human LINE-1 activity inhibition; HeLa cells, reporter plasmid pYX017, Firefly/Renilla, 72 h incubation

Molecule `C#C[C@@]1(CO)C=C[C@H](n2cc(F)c(=O)[nH]c2=O)O1` [compound 22, 1-((5R)-5-ethynyl-5-(hydroxymethyl)-2,5-dihydrofuran-2-yl)-5-fluoropyrimidine-2,4(1H,3H)-dione] has a pIC50 of 4.70.

From patent US20260035403A1, “NUCLEOSIDE LINE-1 INHIBITORS” (TRANSPOSON THERAPEUTICS, INC., priority 2022, published 2026)
